Measurements as given in US20240269128A1, “COMPOUNDS FOR TREATING OR PREVENTING ALZHEIMER'S DISEASE” (THE UNITED STATES OF AMERICA, as represented by the …, priority 2021, published 2024).

Key:
[1] = system: hippocampal CA1 synapses of APP/PS1 mice; experiment: Late long-term potentiation, field recordings in hippocampal slices; design: species or system mouse; settings: for S1 fEPSP slope at the end of the experiment / potentiation of S1 fEPSP slope after STET: APP/PS1 slices
[2] = system: murine microglial cell line BV-2; experiment: LPS-induced neuroinflammation in BV-2 microglial cells (cytokines by MSD V-PLEX, MTT); assay type: cell-based, mouse
Experimental: Lipopolysaccharide (LPS)-Induced Neuroinflammation: The murine microglial cell line BV-2 was cultivated in DMEM medium supplemented with 10% FCS, 1% penicillin/streptomycin and 2 mM L-glutamine (culture medium). For LPS stimulation assay, 5000 BV-2 cells per well (uncoated 96 well plates) were plated out and the medium was changed to treatment medium (DMEM, 5% FCS, 2 mM L-glutamine). After changing cells to treatment medium, drug compounds were administered 1 hour before LPS stimulation (Sigma-Aldrich; L6529; 1 mg/ml stock in ddH2O, final concentration in well: 100 ng/ml (dilutions in medium)). Cells treated with vehicle, cells treated with LPS alone, as well as cells treated with LPS plus reference item (dexamethasone 10 μM, Sigma D4902) served as controls. After 24 h of stimulation, cell supernatants were collected for the cytokine measurement (V-PLEX Proinflammatory Panel 1 Mouse Kit, K15048D, Mesoscale) and cells were subjected to MTT assay.
MTT Assay: MTT solution was added to each well in a final concentration of 0.5 mg/mL. After 2 h, the MTT containing medium was aspirated. Cells were lysed in 3% SDS and the formazan crystals were dissolved in isopropanol/HCl. Optical density was measured with a Cytation 5 (Biotek) multimode reader at wavelength 570 nm. Values were calculated as percent of control values (vehicle control or lesion control).
After changing cells to treatment medium, HCQ (0.25 μM, 2.5 μM and 25 μM) was applied 1 hour before LPS stimulation (Sigma-Aldrich; L6529; 1 mg/ml stock in ddH2O, final concentration in well: 100 ng/ml (dilutions in medium)).

[3] = system: SH-SY5Y-hTau441(V337M/R406W) cells; experiment: Tau phosphorylation assay (Phospho(Thr231)/Total Tau); assay type: cell-based, human
Experimental: Tau Phosphorylation: SH-SY5Y-hTau441(V337M/R406W) cells were maintained in culture medium (DMEM medium, 10% FCS, 1% NEAA, 1% L-Glutamine, 100 g/mL Gentamycin, 300 μg/mL Geneticin G-418) and differentiated with 10 μM retinoic acid (RA) for 5 days changing medium every 2 to 3 days. Prior to the treatment, cells were seeded onto 24-well plates at a cell density of 2×10^5 cells per well (DIV1). Drug compounds were applied on DIV2. After 24 h of incubation (DIV3), cells on 24-well plates were harvested in 60 μL RIPA-Buffer [50 mM Tris pH 7.4, 1% Nonidet P40, 0.25% Na-deoxy-cholate, 150 mM NaCl, 1 mM EDTA supplemented with freshly added 1 μM NaF, 0.2 mM Na-ortho-vanadate, 80 μM Glycerophosphate, protease (Calbiochem) and phosphatase (Sigma) inhibitor cocktail]. Protein concentration was determined by BCA assay (Pierce, ThermoFisher) and samples were adjusted to a uniform total protein concentration. Total Tau and phosphorylated Tau were determined by immunosorbent assay from Mesoscale Discovery (Phospho(Thr231)/Total Tau Kit K15121D, Mesoscale Discovery).
Tau phosphorylation: SH-SY5Y-hTau441(V337M/R406W) cells were maintained in culture medium (DMEM medium, 10% FCS, 1% NEAA, 1% L-Glutamine, 100 μg/mL Gentamycin, 300 μg/mL Geneticin G-418) and differentiated with 10 μM retinoic acid (RA) for 5 days changing medium every 2 to 3 days. Prior to the treatment, cells were seeded onto 24-well plates at a cell density of 2×10^5 cells per well (DIV1). HCQ (25 μM) was applied on DIV2. After 24 h of incubation (DIV3), cells on 24-well plates were harvested in 60 μL RIPA-Buffer [50 mM Tris pH 7.4, 1% Nonidet P40, 0.25% Na-deoxy-cholate, 150 mM NaCl, 1 mM EDTA supplemented with freshly added 1 μM NaF, 0.2 mM Na-ortho-vanadate, 80 μM Glycerophosphate, protease (Calbiochem) and phosphatase (Sigma) inhibitor cocktail]. Protein concentration was determined by BCA assay (Pierce, ThermoFisher) and samples were adjusted to a uniform total protein concentration. Total Tau and phosphorylated Tau were determined by immunosorbent assay from Mesoscale Discovery (Phospho(Thr231)/Total Tau Kit K15121D, Mesoscale Discovery).
Tau Phosphorylation: SH-SY5Y-hTau441(V337M/R406W) cells were maintained in culture medium [DMEM medium, 10% FCS, 1% nonessential amino acids (NEAA), 1% l-glutamine, gentamycin (100 μg/ml), and geneticin G-418 (300 μg/ml)] and differentiated with 10 μM retinoic acid for 5 days changing medium every 2 to 3 days. […] Protein concentration was determined by BCA assay (Pierce, Thermo Fisher Scientific, Waltham, MA), and samples were adjusted to a uniform total protein concentration. Total tau and phosphorylated tau were determined by immunosorbent assay from Mesoscale Discovery [Phospho(Thr231)/Total Tau Kit K15121D, Mesoscale Discovery, Meso Scale Diagnostics]. […]

H4-hAPP cells = experiment: Aβ secretion assay; assay type: cell-based, human
Experimental: (§1) Aβ Secretion: H4-hAPP cells were cultivated in Opti-MEM supplemented with 10% FCS, 1% penicillin/streptomycin 200 μg/mL Hygromycin B and 2.5 μg/mL Blasticidin S. H4-hAPP cells were seeded into 96 well plates (2×10^4 cells per well). On the next day, cells in 96 well plates were treated with compounds, R.I. (DAPT 400 nM) or vehicle. 24 h later, supernatants were collected for further Aβ measurements by MSD® (V-PLEX Aβ Peptide Panel 1 (6E10) Kit, K15200E, Mesoscale Discovery).
as §1, with “secretion: Human APP overexpressing” for “Secretion:”, “HCQ (0.25 μM, 2.5 μM and 25 μM) or the reference item” for “with compounds, R.I.”, “nM), a γ-secretase inhibitor” for “nM) or”
(§2) Cultivation and treatment of H4-hAPP cells: H4-hAPP cells were thawed and cultivated in Opti-MEM supplemented with 10% FCS, 1% penicillin/streptomycin 200 μg/ml Hygromycin B and 2.5 μg/ml Blasticidin S (=culture medium). H4-hAPP cells were seeded into 96 well plates (2×10^4 cells per well). On the next day, cells in 96 well plates were treated with TUDCA (100 μM (C1), 10 μM (C2), or 1.0 μM (C3)), R.I. (DAPT 400 nM) or vehicle. Alternatively, cells in 96 well plates were treated with 25 μM HCQ/0.1 μM TUDCA (C1), 2.5 μM HCQ/100 μM TUDCA (C2), and 2.5 μM HCQ/10 μM TUDCA (C3). 24 h later, supernatants were collected for further Aβ measurements by MSD. The experiment was performed in n=6 technical replicates for all groups.
(§3) Aβ38, 40, 42 measurement: Supernatants were diluted 1:10 and analyzed for human Aβ38, 40, and 42 with MSD® 96-well MULTI-SPOT® 6E10 Abeta Triplex Assay (Mesoscale Discovery, Rockville, MD). The immune assay was carried out according to the manual and plates are read on the MESO QuickPlex SQ 120 multiplexing instrument. Analyte levels were evaluated according to adequate Aβ peptide standards (MSD) as pg per mL.
Aβ Secretion: H4-hAPP cells were cultivated in Opti-MEM supplemented with 10% FCS, 1% penicillin/streptomycin, hygromycin B (200 μg/ml), and blasticidin S (2.5 μg/ml). H4-hAPP cells were seeded into 96-well plates (2×10^4 cells per well). On the next day, cells in 96-well plates were treated with compounds, reference item [400 nM N-[N-(3,5-difluorophenacetyl-1-alanyl)]-S-phenylglycine t-butyl ester (DAPT)], or vehicle. Twenty-four hours later, supernatants were collected for further Aβ measurements by MSD [V-PLEX Aβ Peptide Panel 1 (6E10) Kit, K15200E, Mesoscale Discovery].
as §2, with “Culture” for “Cultivation”, “T.I.,” for “TUDCA (100 μM (C1), 10 μM (C2), or 1.0 μM (C3)),”, “vehicle.” for “vehicle. Alternatively, cells in 96 well plates were treated with 25 μM HCQ/0.1 μM TUDCA (C1), 2.5 μM HCQ/100 μM TUDCA (C2), and 2.5 μM HCQ/10 μM TUDCA (C3).”
as §3, with “measurement in H4-hAPP cells:” for “measurement:”, “Discovery).” for “Discovery, Rockville, MD).”, “were” for “are”, “120.” for “120 multiplexing instrument.”

BV-2 cells = experiment: Aβ1-42 clearance assay; assay type: cell-based, mouse; settings: posterior probability of a protective effect, Bayesian dose-response model
Experimental: AB Clearance: For the amyloid beta (Aβ) clearance assay, 20000 BV-2 cells per well (uncoated 96 well plates) were plated out. After changing cells to treatment medium, drug compounds were administered 1 hour before Aβ stimulation (Bachem 4061966; final concentration in well: 200 ng/ml (dilutions in medium)). Cells treated with vehicle and cells treated with Aβ alone served as controls. After 3 h of Aβ stimulation, cell supernatants were collected for the Aβ measurement and cells were carefully washed twice with PBS and thereafter lysed in 35 μL cell lysis buffer (50 mM Tris-HCl, pH 7.4, 150 mM NaCl, 5 mM EDTA, 1% SDS) supplemented with protease inhibitors. Supernatants and cell lysates were analyzed for human Aβ42 with MSD® V-PLEX Human Aβ42 Peptide (6E10) Kit (K151LBE, Mesoscale Discovery). The immune assay was carried out according to the manual and plates were read on the MESO QuickPlex SQ 120.
Aβ1-42 clearance: For Abeta (Aβ1-42) clearance assay, 20,000 BV-2 cells per well (uncoated 96 well plates) were plated out. After changing cells to treatment medium, HCQ (0.25 μM, 2.5 μM and 25 μM) was applied 1 hour before Aβ1-42 stimulation (Bachem 4061966; final concentration in well: 200 ng/ml (dilutions in medium)). Cells treated with vehicle (0.1% DMSO) and cells treated with Aβ1-42 alone served as controls. After 3 h of Aβ1-42 stimulation, cell supernatants were collected for the Aβ1-42 measurement and cells were carefully washed twice with PBS and thereafter lysed in 35 μL cell lysis buffer (50 mM Tris-HCl, pH 7.4, 150 mM NaCl, 5 mM EDTA, 1% SDS) supplemented with protease inhibitors. Supernatants and cell lysates were analyzed for human Aβ1-42 with MSD® V-PLEX Human Aβ42 Peptide (6E10) Kit (K151LBE, Mesoscale Discovery). The immune assay was carried out according to the manufacturer's manual and plates were read on the MESO QuickPlex SQ 120.
Aβ Clearance: 20,000 BV2 cells per well (uncoated 96-well plates were plated out. After changing cells to treatment medium, drug compounds were administered 1 hour before Aβ stimulation (final concentration in well 200 ng/ml; dilutions in medium). Cells treated with vehicle and cells treated with Aβ alone served as controls. After 3 hours of Aβ stimulation, cell supernatants were collected for the Aβ measurement and cells were carefully washed twice with PBS and thereafter lysed in 35 μl of cell lysis buffer (50 mM tris-HCl, pH 7.4, 150 mM NaCl, 5 mM EDTA, and 1% SDS) supplemented with protease inhibitors. Supernatants and cell lysates were analyzed for human Aβ42 with the MSD V-PLEX Human Aβ42 Peptide (6E10) Kit (K151LBE, Mesoscale Discovery). The immune assay was carried out according to the manual, and plates were read on MESO QuickPlex SQ 120 (Meso Scale Diagnostics, Rockville, MD).
For Aβ clearance assay, 20,000 BV-2 cells per well (uncoated 96 well plates) were plated out. After 24 hours, medium was changed to treatment medium (DMEM, 5% FCS, 2 mM L-glutamine) and cells were maintained in treatment medium for the remaining culture period. After changing cells to treatment medium, the test items were administered 1 hour before Aβ stimulation (Bachem 4061966; final concentration in well: 200 ng/mL (dilutions in medium)). Cells treated with vehicle, cells treated with Aβ alone, as well as wells with Aβ but no cells served as controls. All wells were handled the same way. After 3 h of Aβ stimulation, cell supernatants were collected for the Aβ measurement and cells were carefully washed twice with PBS and thereafter lysed in 35 μl cell lysis buffer (50 mM Tris-HCl, pH 7.4, 150 mM NaCl, 5 mM EDTA, 1% SDS) supplemented with protease inhibitors. Cells were incubated for 15 min at RT on a plate shaker, samples were frozen at −80° C. until further use. The experiment was performed in n=6 technical replicates for all groups. […]

iPSCs = experiment: LPS induced neuroinflammation (iPSCs); assay type: cell-based; settings: posterior probability of a protective effect
Experimental: Cell-based assays: For each combination of drugs and assay, the posterior probability P(Hi|data) of protective, neutral, and adverse drug effect (formal hypotheses H1, H0, H2, respectively) were evaluated. Dose-response relationships (x-y data) were modeled with a Bayesian nonlinear regression model:
and Bayesian estimation of the posterior density of the fold change was performed using default settings of the Markov chain Monte Carlo samples implemented by the PyMC python library. For efficient sample, each bioactivity data set was standardized such that […] corresponded to one standard deviation. Diagnostic criteria (posterior sample of fitted curves, effective sample sizes, values of the r statistic, and Markov chain standard errors) were inspected for the fit and three poorly fitted data sets out of a total of 91 data sets were excluded.

[4] = system: hippocampal neuronal cells; settings: Lee et al. 2019; cited from earlier work
[5] = system: hippocampal cell cultures; settings: Rzemieniec et al. 2019; cited from earlier work

In the case of CCN(CCO)CCCC(C)Nc1ccnc2cc(Cl)ccc12 (racemic) [HCQ racemic free base], the “late-LTP in APP/PS1 mice” value ([1]; 25 μM HCQ racemic free base) is reported as “partial rescue”, the “late-LTP in APP/PS1 mice” value ([1]; 50 μM HCQ racemic free base) is reported as “diminished initial potentiation which did not last” and the “late LTP in age-matched WT mice” value ([1]; 50 μM HCQ racemic free base, preliminary (n=1)) is reported as “partially impaired”. The “S1 fEPSP slope at the end of the experiment” value ([1]; 25 μM HCQ racemic free base) was 118.003±7.753%, the “potentiation of S1 fEPSP slope after STET” value ([1]; 25 μM HCQ racemic free base) was 155.545±12.309% and the “S1 fEPSP slope at the end of the experiment” value ([1]; 50 μM HCQ racemic free base) was 119.117±8.167%. For the same compound, the “potentiation of S1 fEPSP slope after STET” value ([1]; 50 μM HCQ racemic free base) was 128.809±8.116%.

For COc1ccc(S(=O)(=O)Nc2cc(-c3c(O)ccc4ccccc34)c(O)c3ccccc23)cc1 [C188-9, N-[4-hydroxy-3-(2-hydroxynaphthalen-1-yl)naphthalen-1-yl]-4-methoxybenzenesulfonamide], the “release of IL-1β” value ([2]; 0.3 μM and 0.6 μM, relative to LPS) was “significantly reduced”, the “release of IL-6” value ([2]; 0.6 μM, 24 h LPS stimulation, relative to LPS) was “significantly reduced” and the cell viability ([2]; C188-9 in LPS assay, results not shown) was “no adverse effects on cell viability”. The “phosphorylated tau 231 (ptau)” value ([3]; 10 μM, 24 h, relative to VC) was “significantly reduced”, the “Aβ42: Aβ40 ratio” value (H4-hAPP cells; 1 μM, relative to VC) was “significantly reduced” and the “endogenous Aβ1-42” value (H4-hAPP cells; 1 μM, relative to VC) was “significantly reduced”. The cell viability (H4-hAPP cells; C188-9 in Aβ secretion assay, results not shown) was “no adverse effects on cell viability”.

With Cc1c[nH]c(-c2cnc(NCCNc3ccc(C#N)cn3)nc2-c2ccc(Cl)cc2Cl)n1 [CHIR] the “phosphorylated Tau” value ([3]; reference item, compared to vehicle control) was “significantly reduced”.

For C[C@H](NC(=O)Cc1cc(F)cc(F)c1)C(=O)N[C@H](C(=O)OC(C)(C)C)c1ccccc1 [DAPT, N-[N-(3,5-difluorophenacetyl-1-alanyl)]-S-phenylglycine t-butyl ester], the “Aβ species (Aβ1-38, 1-40 and 1-42) in supernatant” value (H4-hAPP cells; reference item, 400 nM, 24 h) was “significantly reduced all tested species”.

For c1ccc2c(Cc3c[nH]c4ccccc34)c[nH]c2c1 [DIM, 3,3′-diindolylmethane], the “effect in LPS induced neuroinflammation (BV2 cells)” value ([2]; posterior probability of a protective effect) was “protective”, the “effect in Aβ clearance (BV2 cells)” value (BV-2 cells) was “strongly protective” and the “LTP in APP/PS1 slices” value ([1]; 10 μM DIM, acute application) was “rescues LTP”. The “late LTP in APP/PS1 slices” value ([1]; 3-hour pre-incubation with 10 μM DIM) was “no longer results in rescue”, the “effect in LPS induced neuroinflammation (iPSCs)” value (iPSCs) was “strongly protective” and the oxidative stress-induced apoptosis [4] was “inhibit”. The “ischemia-induced apoptosis and autophagy” value [5] was “protect”.
